These results are taken from PubChem BioAssay (NCI).

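In this assay, cells in 96-well plates receive the compound at five concentrations for 48 hours. Endpoints are linearly interpolated between the surrounding concentrations. GI50 marks 50% less growth. TGI: concentration producing complete growth inhibition.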 A value given as a limit tells only on which side of the number the result lay.

Among the test systems are A549 NSCLC; DU-145 prostate; HCC-2998 colon; HOP-62 NSCLC; OVCAR-4 ovarian; SF-539 CNS; SK-MEL-5 melanoma; UACC-257 melanoma; HOP-92 NSCLC.
Holding throughout (assay): DTP human tumour cell line panel, 48 h

The GI50 is the concentration that inhibits growth by half. The term TGI denotes the concentration at which net growth stops. The low end stands for greater sensitivity of the cells, the high end for lower sensitivity of the cells. As to `CSCc1ncc(-c2ccc(C(F)(F)F)cc2)c(NC2CCCCCC2)n1`, the GI50 in the assay with A549 NSCLC, in the assay on DU-145 prostate, in the assay on HCC-2998 colon, with HOP-62 NSCLC, with OVCAR-4 ovarian and with SF-539 CNS was over 10 µM in each case. For the same compound, the GI50 with SK-MEL-5 melanoma and with UACC-257 melanoma was over 10 µM each time. The TGI in the assay on A549 NSCLC, in the assay with DU-145 prostate, in the assay on HCC-2998 colon, with HOP-62 NSCLC, with OVCAR-4 ovarian and with SF-539 CNS was over 10 µM throughout. The TGI in the assay with SK-MEL-5 melanoma and with UACC-257 melanoma was over 10 µM throughout.
In the case of `O=C(O)C1CC2C=CCC(C2)C1` (stereo not drawn), the TGI in the assay on A549 NSCLC, with HOP-62 NSCLC, in the assay with HOP-92 NSCLC, with OVCAR-4 ovarian, in the assay on SK-MEL-5 melanoma and in the assay on UACC-257 melanoma was over 100 µM in each case.
With `N.N.N.N.O=S([O-])[O-].[Co+3].[N-]=[N+]=[N-]`, the GI50 in the assay with A549 NSCLC, in the assay on HCC-2998 colon, in the assay on HOP-62 NSCLC, in the assay with HOP-92 NSCLC, in the assay with OVCAR-4 ovarian and with SF-539 CNS was over 100 µM throughout. The GI50 in the assay with SK-MEL-5 melanoma and in the assay with UACC-257 melanoma was over 100 µM in each case. Further, the TGI in the assay on A549 NSCLC, in the assay on HCC-2998 colon, in the assay on HOP-62 NSCLC, in the assay on HOP-92 NSCLC, with OVCAR-4 ovarian and with SF-539 CNS was over 100 µM each time. Further, the concentration for total growth inhibition (TGI) in the assay with SK-MEL-5 melanoma and with UACC-257 melanoma was over 100 µM throughout.
In the case of `Nc1ccccc1SC(/C=C/NNC1=NC(c2ccccc2)C(c2ccccc2)=NN1)c1ccccc1` (stereo not drawn), the total growth inhibition concentration (TGI) in the assay with A549 NSCLC was 33.4 µM; in the assay with HCC-2998 colon it was 30.5 µM; with HOP-62 NSCLC, 34.3 µM; in the assay with HOP-92 NSCLC, 22.1 µM; with OVCAR-4 ovarian, 28.7 µM; in the assay on SF-539 CNS, 25.9 µM. In addition, the TGI amounted to 26.8 µM in the assay with SK-MEL-5 melanoma and 28.1 µM in the assay on UACC-257 melanoma.
Take `CCNC(=O)COc1ccc(Cl)c(C)c1`: the TGI with A549 NSCLC, with HCC-2998 colon, in the assay with HOP-62 NSCLC, with HOP-92 NSCLC, in the assay on OVCAR-4 ovarian and with SF-539 CNS was over 100 µM throughout. Further, the TGI in the assay with SK-MEL-5 melanoma and with UACC-257 melanoma was over 100 µM throughout.
Consider `Cc1nc(Nc2ccc(Cl)cc2)sc1C(=O)Nc1cccc2c(=O)[nH][nH]c(=O)c12`, for which the TGI in the assay with A549 NSCLC was over 100 µM; in the assay with HCC-2998 colon it was over 100 µM; in the assay on HOP-62 NSCLC it was over 100 µM; in the assay with HOP-92 NSCLC, 38.8 µM; in the assay with OVCAR-4 ovarian it was over 100 µM; in the assay on SF-539 CNS it was over 100 µM. The results for the TGI with SK-MEL-5 melanoma and in the assay on UACC-257 melanoma were 45.2 µM and over 100 µM, respectively.
With `O=C(NCCCN1CCN(CCCNC(=O)Nc2cc(Cl)ccc2Cl)CC1)Nc1cc(Cl)ccc1Cl`, the TGI with A549 NSCLC, in the assay on HOP-62 NSCLC, in the assay on HOP-92 NSCLC, with OVCAR-4 ovarian, in the assay with SF-539 CNS and in the assay on SK-MEL-5 melanoma was over 100 µM in each case. The TGI in the assay with UACC-257 melanoma was 34 µM.
For the compound `CN(C)C(=S)/N=c1\ssc(=Nc2ccccc2)n1-c1ccccc1`, the TGI was over 100 µM in the assay on A549 NSCLC; 68.9 µM with HCC-2998 colon; 75.5 µM with HOP-62 NSCLC; 46 µM with HOP-92 NSCLC; 18.9 µM in the assay on OVCAR-4 ovarian; 32 µM in the assay on SF-539 CNS. The same compound came in with a TGI with UACC-257 melanoma of over 100 µM.
Regarding `C=C(c1ccccc1)c1cc2c(=O)[nH]ccc2n1C`, the TGI is over 100 µM in the assay on A549 NSCLC; over 100 µM in the assay with HCC-2998 colon; over 100 µM with HOP-62 NSCLC; 61.3 µM with HOP-92 NSCLC; over 100 µM in the assay with OVCAR-4 ovarian; 71.1 µM in the assay with SK-MEL-5 melanoma. The compound also registered a TGI in the assay on UACC-257 melanoma of over 100 µM.
Consider `CCOC(=O)NN1C(=O)C(=P(c2ccccc2)(c2ccccc2)c2ccccc2)C(C(=O)OC)=C1C`, for which the TGI in the assay with A549 NSCLC, with HCC-2998 colon, in the assay on HOP-62 NSCLC, in the assay on HOP-92 NSCLC, in the assay on OVCAR-4 ovarian and with SF-539 CNS was over 100 µM each time. For the same compound, the TGI in the assay with SK-MEL-5 melanoma and with UACC-257 melanoma was over 100 µM each time.
Turning to `COC(=O)C1=C(O)c2cc(OC)c(OC)c(OC)c2C(c2ccc3c(c2)OCO3)[C@@H]1C(=O)OC` (stereo partly drawn), the TGI with A549 NSCLC was over 100 µM; in the assay on HCC-2998 colon, 31.7 µM; with HOP-62 NSCLC, over 100 µM; in the assay on HOP-92 NSCLC, over 100 µM; in the assay with OVCAR-4 ovarian it was over 100 µM; in the assay on SF-539 CNS, 5.52 µM. The compound also showed a TGI in the assay on UACC-257 melanoma of over 100 µM.
`O=C1c2ccccc2-c2c1c1ccccc1c(=O)n2CCNCCNCCNCCNCCn1c2c(c3ccccc3c1=O)C(=O)c1ccccc1-2`: the GI50 with A549 NSCLC is 0.59 µM; in the assay with DU-145 prostate, 0.161 µM; in the assay on HOP-62 NSCLC, 0.973 µM; in the assay on HOP-92 NSCLC it was 0.939 µM; in the assay on SF-539 CNS it was 0.0446 µM; in the assay with SK-MEL-5 melanoma, 0.323 µM. In the assay with UACC-257 melanoma, the GI50 was 0.716 µM. The TGI in the assay on A549 NSCLC came out at 3.23 µM; in the assay with DU-145 prostate, 1.57 µM; with HOP-62 NSCLC, 2.24 µM; in the assay on HOP-92 NSCLC, 2.5 µM; in the assay on SF-539 CNS, 0.314 µM; in the assay on SK-MEL-5 melanoma, 1.47 µM. In the assay with UACC-257 melanoma, this compound came in with a TGI of 5.73 µM.
`Nc1ccc(C(=O)N/C(=C\c2ccc3c(c2)OCO3)c2nc3ccccc3s2)cc1`: the total growth inhibition concentration (TGI) was 31 µM in the assay on A549 NSCLC; 27.9 µM with HCC-2998 colon; 24.7 µM in the assay on HOP-92 NSCLC; 25.1 µM with OVCAR-4 ovarian; 31.4 µM in the assay with SF-539 CNS; 29.2 µM in the assay on SK-MEL-5 melanoma.
As to `COC(=O)CCC(NC(=S)N/N=C(\C)c1cccs1)C(=O)OC` (stereo not drawn), the TGI in the assay with A549 NSCLC, in the assay on HCC-2998 colon, with HOP-62 NSCLC, with HOP-92 NSCLC, in the assay on OVCAR-4 ovarian and with SF-539 CNS was over 100 µM in each case. For the same compound, the TGI with SK-MEL-5 melanoma and in the assay with UACC-257 melanoma was over 100 µM throughout.
Consider `CC(NC1CCCC[C@@H]1O)c1ccccc1` (stereo partly drawn), for which the TGI with A549 NSCLC, in the assay with HCC-2998 colon, with HOP-62 NSCLC, with HOP-92 NSCLC, in the assay on OVCAR-4 ovarian and in the assay with SK-MEL-5 melanoma was over 100 µM throughout. Besides, the TGI in the assay with UACC-257 melanoma was over 100 µM.
